Assay: Solubility and stability of API in dependence of surfactant concentration
Assay type: physicochemical
Settings: phosphate buffer and 0.50% vitamin E TPGS, compared with other buffer/surfactant combinations at 0.25% and 0.5%
Procedure: In order to prevent too high concentrations of surfactants, which can cause irritant or toxic effects after local administration in the bladder, lower concentrations were evaluated. New batches of API in citrate and phosphate buffer were manufactured. SLS and vitamin E TPGS were chosen for citrate buffer and Labrasol® and vitamin E TPGS for phosphate buffer in a concentration of 0.5% and 0.25%, each. The compositions were stirred overnight prior to filtration and analysis.

CN(C)[C@]1(c2cccc(F)c2)CC[C@]2(CC1)c1[nH]c3ccccc3c1CCN2C(=O)/C=C/c1ccccc1 [API, cis-(E)-4-(3-fluorophenyl)-2′,3′,4′,9′-tetrahydro-N,N-dimethyl-2′-(1-oxo-3-phenyl-2-propenyl)-spiro[cyclohexane-1,1′[1H]-pyrido[3,4-b]indol]-4-amine]
assay and impurities: highest assay and lowest impurities values
